Data reported in ChEMBL document CHEMBL1155954, “A concise approach to 1,11-didechloro-6-methyl-4'-O-demethyl rebeccamycin and its binding to human serum albumin: fluorescence spectroscopy and molecular modeling method” (Bioorg Med Chem, 2008).

Tests used:
Albumin [1] = target: T1, Albumin (Homo sapiens, UniProt P02768); assay: Binding affinity to human serum albumin at 289 kelvin by fluorescence quenching measurement in presence of Bi3+ ions; format: ADME; conditions: isolated protein
Albumin [2] = target: T1, Albumin; assay: Binding affinity to human serum albumin at 289 kelvin by fluorescence quenching measurement in presence of Pb2+ ions; format: ADME; conditions: isolated protein
Albumin [3] = target: T1, Albumin; assay: Binding affinity to human serum albumin at 299 kelvin by fluorescence quenching measurement; format: ADME; conditions: isolated protein
Albumin [4] = target: T1, Albumin; assay: Binding affinity to human serum albumin at 289 kelvin by fluorescence quenching measurement in presence of Cd2+ ions; format: ADME; conditions: isolated protein
Albumin [5] = target: T1, Albumin; assay: Binding affinity to human serum albumin at 289 kelvin by fluorescence quenching measurement in presence of Hg2+ ions; format: ADME; conditions: isolated protein
Albumin [6] = target: T1, Albumin; assay: Binding affinity to human serum albumin at 289 kelvin by fluorescence quenching measurement in presence of [CO3]2- ions; format: ADME; conditions: isolated protein
Albumin [7] = target: T1, Albumin; assay: Binding affinity to human serum albumin at 289 kelvin by fluorescence quenching measurement in presence of Ni2+ ions; format: ADME; conditions: isolated protein
Albumin [8] = target: T1, Albumin; assay: Binding affinity to human serum albumin at 309 kelvin by fluorescence quenching measurement; format: ADME; conditions: isolated protein
Albumin [9] = target: T1, Albumin; assay: Binding affinity to human serum albumin at 289 kelvin by fluorescence quenching measurement; format: ADME; conditions: isolated protein
Albumin [10] = target: T1, Albumin; assay: Binding affinity to human serum albumin at 289 kelvin by fluorescence quenching measurement in presence of Ca2+ ions; format: ADME; conditions: isolated protein
Albumin [11] = target: T1, Albumin; assay: Binding affinity to human serum albumin at 289 kelvin by fluorescence quenching measurement in presence of F- ions; format: ADME; conditions: isolated protein
Albumin [12] = target: T1, Albumin; assay: Binding affinity to human serum albumin at 289 kelvin by fluorescence quenching measurement in presence of Mg2+ ions; format: ADME; conditions: isolated protein
Albumin [13] = target: T1, Albumin; assay: Binding affinity to human serum albumin at 289 kelvin by fluorescence quenching measurement in presence of Zn2+ ions; format: ADME; conditions: isolated protein
Albumin [14] = target: T1, Albumin; assay: Binding affinity to human serum albumin at 289 kelvin by fluorescence quenching measurement in presence of [SO4]2- ions; format: ADME; conditions: isolated protein
Albumin [15] = target: T1, Albumin; assay: Binding affinity to human serum albumin at 289 kelvin by fluorescence quenching measurement in presence of K+ ions; format: ADME; conditions: isolated protein
Albumin [16] = target: T1, Albumin; assay: Binding affinity to human serum albumin at 289 kelvin by fluorescence quenching measurement in presence of [NO3]- ions; format: ADME; conditions: isolated protein
Albumin [17] = target: T1, Albumin; assay: Binding affinity to human serum albumin at 289 kelvin by fluorescence quenching measurement in presence of Fe3+ ions; format: ADME; conditions: isolated protein
Albumin [18] = target: T1, Albumin; assay: Binding affinity to human serum albumin at 289 kelvin by fluorescence quenching measurement in presence of [Sio3]2- ions; format: ADME; conditions: isolated protein
Albumin [19] = target: T1, Albumin; assay: Binding affinity to human serum albumin at 289 kelvin by fluorescence quenching measurement in presence of Al3+ ions; format: ADME; conditions: isolated protein
K562 = assay: Anticancer activity against human K562 cells; format: functional, cell-based

T1 sequence (P02768 whole entry): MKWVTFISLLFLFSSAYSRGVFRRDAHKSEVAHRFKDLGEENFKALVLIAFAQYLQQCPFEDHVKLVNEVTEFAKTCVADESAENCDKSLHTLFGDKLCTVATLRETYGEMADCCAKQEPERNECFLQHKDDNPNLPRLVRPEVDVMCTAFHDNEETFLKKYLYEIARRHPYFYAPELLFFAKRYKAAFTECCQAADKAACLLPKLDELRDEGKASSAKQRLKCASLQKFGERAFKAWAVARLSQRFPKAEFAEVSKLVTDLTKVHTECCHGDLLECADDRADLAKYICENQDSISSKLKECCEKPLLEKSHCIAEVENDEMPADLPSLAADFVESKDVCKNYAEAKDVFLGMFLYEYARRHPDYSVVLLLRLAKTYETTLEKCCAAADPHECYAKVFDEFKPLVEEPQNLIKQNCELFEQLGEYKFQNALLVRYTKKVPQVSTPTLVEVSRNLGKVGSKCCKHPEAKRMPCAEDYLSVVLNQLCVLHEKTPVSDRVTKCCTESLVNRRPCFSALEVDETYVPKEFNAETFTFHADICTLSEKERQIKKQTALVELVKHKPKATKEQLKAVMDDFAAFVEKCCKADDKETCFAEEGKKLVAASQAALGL

Row | Structure (SMILES) | K (Albumin [1]) | K (Albumin [2]) | K (Albumin [3]) | K (Albumin [4]) | K (Albumin [5]) | K (Albumin [6]) | K (Albumin [7]) | K (Albumin [8]) | K (Albumin [9]) | K (Albumin [10]) | K (Albumin [11]) | K (Albumin [12]) | K (Albumin [13]) | K (Albumin [14]) | K (Albumin [15]) | K (Albumin [16]) | K (Albumin [17]) | K (Albumin [18]) | K (Albumin [19]) | IC50 (K562)
1 | CN1C(=O)c2c(c3c4ccccc4n([C@@H]4O[C@H](CO)[C@@H](O)[C@H](O)[C@H]4O)c3c3[nH]c4ccccc4c23)C1=O | 7.01 ×10⁶ L/mol | 4.87 ×10⁶ L/mol | 195000 L/mol | 4.56 ×10⁶ L/mol | 8.41 ×10⁶ L/mol | 3.48 ×10⁶ L/mol | 5.32 ×10⁶ L/mol | 145000 L/mol | 231000 L/mol | 7.17 ×10⁶ L/mol | 8.78 ×10⁶ L/mol | 4.76 ×10⁶ L/mol | 7.12 ×10⁶ L/mol | 4.33 ×10⁶ L/mol | 8.9 ×10⁶ L/mol | 3.4 ×10⁶ L/mol | 3.48 ×10⁶ L/mol | 6.68 ×10⁶ L/mol | 3.93 ×10⁶ L/mol | –
2 | CO[C@H]1[C@H](O)[C@@H](O)[C@H](n2c3c(Cl)cccc3c3c4c(c5c6cccc(Cl)c6[nH]c5c32)C(=O)NC4=O)O[C@@H]1CO [REBECCAMYCIN] | – | – | – | – | – | – | – | – | – | – | – | – | – | – | – | – | – | – | – | 4 µM
